Results as given in patent publication US8937084B2, “Nitrogen containing morphinan derivatives and the use thereof” (Purdue Pharma L.P., priority 2012, dated 2015).

How the values were obtained:
[1] = target: δ opioid receptor (Homo sapiens (Human), UniProt P41143); test: δ-opioid receptor radioligand dose-displacement binding assay ([3H]-Naltrindole)
Method: δ-Oploid Receptor Binding Assay Procedures: δ-Opioid Receptor Binding Assay Procedures were conducted as follows. Radioligand dose-displacement assays used 0.3 nM [^3H]-Naltrindole (Perkin Elmer, Shelton, Conn.; 33.0 Ci/mmole) with 5 μg membrane protein (Perkin Elmer, Shelton, Conn.) in a final volume of 500 μl binding buffer (5 mM MgCl2, 5% DMSO, 50 mM Trizma base, pH 7.4). Non-specific binding was determined in the presence of 25 μM unlabeled naloxone. All reactions were performed in 96-deep well polypropylene plates for 1 hour at a temperature of about 25° C. Binding reactions were terminated by rapid filtration onto 96-well Unifilter GF/C filter plates (Perkin Elmer, Shelton, Conn.) presoaked in 0.5% polyethylenimine (Sigma). Harvesting was performed using a 96-well tissue harvester (Perkin Elmer, Shelton, Conn.) followed by five filtration washes with 500 μl ice-cold binding buffer. Filter plates were subsequently dried at 50° C. for 1-2 hours. Fifty μl/well scintillation cocktail (Perkin Elmer, Shelton, Conn.) was added and plates were counted in a Packard Top-Count for 1 min/well.
(§1) In TABLE 1, binding affinity of certain Compounds of the Invention to the μ-, δ- and κ-opioid receptors was determined as described above.

[2] = target: κ opioid receptor (Homo sapiens (Human), UniProt P41145); test: κ-opioid receptor [35S]GTPγS functional assay, HEK-293 or CHO cells; assay type: biochemical; conditions: for EC50: GTPγS; for Emax: relative to U69,593
Method: κ-Opioid Receptor Functional Assay Procedures: Functional [^35S]GTPγS binding assays were conducted as follows. κ opioid receptor membrane solution was prepared by sequentially adding final concentrations of 0.026 μg/μl κ membrane protein (in-house), 10 μg/mL saponin, 3 μM GDP and 0.20 nM [^35S]GTPγS to binding buffer (100 mM NaCl, 10 mM MgCl2, 20 mM HEPES, pH 7.4) on ice. The prepared membrane solution (190 μl/well) was transferred to 96-shallow well polypropylene plates containing 10 μl of 20× concentrated stock solutions of agonist prepared in DMSO. Plates were incubated for 30 min at a temperature of about 25° C. with shaking. Reactions were terminated by rapid filtration onto 96-well Unifilter GF/B filter plates (Perkin Elmer, Shelton, Conn.) using a 96-well tissue harvester (Packard) and followed by three filtration washes with 200 μl ice-cold binding buffer (10 mM NaH2PO4, 10 mM Na2HPO4, pH 7.4). Filter plates were subsequently dried at 50° C. for 2-3 hours. Fifty μl/well scintillation cocktail (Perkin Elmer, Shelton, Conn.) was added and plates were counted in a Packard Top-Count for 1 min/well.
κ-Oploid Receptor Functional Data: κ GTP EC50 is the concentration of a compound providing 50% of the maximal response for the compound at a K receptor.
κ GTP Emax (%) is the maximal effect elicited by a compound relative to the effect elicited by U69,593.
(§2) In TABLE 2, activity response of certain Compounds of the Invention to the μ-, δ- and κ-opioid receptors was determined as described above for functional assays using HEK-293 or CHO cells.

[3] = target: μ-opioid receptor (Homo sapiens (Human), UniProt P35372); test: μ-opioid receptor [35S]GTPγS functional assay, HEK-293 or CHO cells; assay type: biochemical; conditions: for EC50: GTPγS; for Emax: relative to DAMGO
Method: μ-Opioid Receptor Functional Assay Procedures: [^35S]GTPγS functional assays were conducted using freshly thawed μ-receptor membranes prepared in-house from a cell line expressing recombinant μ opioid receptor in a HEK-293, CHO or U-2 OS cell background, or purchased from a commercial source (Perkin Elmer, Shelton, Conn.; or DiscovRx, Fremont, Calif.). Assay reactions were prepared by sequentially adding the following reagents to binding buffer (100 mM NaCl, 10 mM MgCl2, 20 mM HEPES, pH 7.4) on ice (final concentrations indicated): membrane protein (0.026 mg/mL), saponin ([…]), GDP ([…]) and [^35S]GTPγS (0.20 nM; Perkin Elmer, Shelton, Conn.). The prepared membrane solution (190 μl/well) was transferred to 96-shallow well polypropylene plates containing 10 μl of 20× concentrated stock solutions of the agonist [D-Ala^2, N-methyl-Phe^4 Gly-ol^5]-enkephalin (DAMGO) prepared in dimethyl sulfoxide (DMSO). Plates were incubated for 30 min at about 25° C. with shaking. Reactions were terminated by rapid filtration onto 96-well Unifilter GF/B filter plates (Perkin Elmer, Shelton, Conn.) using a 96-well tissue harvester (Perkin Elmer, Shelton, Conn.) followed by three filtration washes with 200 μl of ice-cold wash buffer (10 mM NaH2PO4, 10 mM Na2HPO4, pH 7.4). Filter plates were subsequently dried at 50° C. for 2-3 hours. BetaScint scintillation cocktail (Perkin Elmer, Shelton, Conn.) was added (50 μl/well) and plates were counted using a Packard Top-Count for 1 min/well. Data were analyzed using the sigmoidal dose-response curve fitting functions in GraphPad PRISM v. 3.0, or an in-house function for non-linear, sigmoidal dose-response curve-fitting.
μ-Opioid Receptor Functional Data: μ GTP EC50 is the concentration of a compound providing 50% of the maximal response for the compound at a μ-opioid receptor.
μ GTP Emax (%) is the maximal effect elicited by a compound relative to the effect elicited by DAMGO, a standard μ agonist. Generally, the μ GTP Emax (%) value measures the efficacy of a compound to treat or prevent pain or other Conditions.
as §2

[4] = target: recombinant human kappa opioid receptor (κ) (Homo sapiens (Human), UniProt P41145); test: κ-opioid receptor radioligand dose-displacement binding assay ([3H]-U69,593)
Method: κ-Opioid Receptor Binding Assay Procedures: Membranes from HEK-293 cells, CHO or U-2 OS cells expressing the recombinant human kappa opioid receptor (κ) (cloned in house) were prepared by lysing cells in ice cold hypotonic buffer (2.5 mM MgCl2, 50 mM HEPES, pH 7.4) (10 mL/10 cm dish) followed by homogenization with a tissue grinder/Teflon pestle. Membranes were collected by centrifugation at 30,000×g for 15 min at 4° C. and pellets were resuspended in hypotonic buffer to a final concentration of 1-3 mg/mL. Protein concentrations were determined using the BioRad protein assay reagent with bovine serum albumen as standard. Aliquots of κ receptor membranes were stored at −80° C.
Radioligand dose displacement assays used 0.4 nM [^3H]-U69,593 (GE Healthcare, Piscataway, N.J.; 40 Ci/mmole) with 15 μg membrane protein (recombinant κ opioid receptor expressed in HEK 293 cells; in-house prep) in a final volume of 200 μl binding buffer (5% DMSO, 50 mM Trizma base, pH 7.4). Non-specific binding was determined in the presence of 10 μM unlabeled naloxone or U69,593. All reactions were performed in 96-well polypropylene plates for 1 hour at a temperature of about 25° C. Binding reactions were terminated by rapid filtration onto 96-well Unifilter GF/C filter plates (Perkin Elmer, Shelton, Conn.) presoaked in 0.5% polyethylenimine (Sigma). Harvesting was performed using a 96-well tissue harvester (Perkin Elmer, Shelton, Conn.) followed by five filtration washes with 200 μl ice-cold binding buffer. Filter plates were subsequently dried at 50° C. for 1-2 hours. Fifty μl/well scintillation cocktail (Perkin Elmer, Shelton, Conn.) was added and plates were counted in a Packard Top-Count for 1 min/well.
as §1

Sequence of δ opioid receptor (P41143 whole entry, looked up): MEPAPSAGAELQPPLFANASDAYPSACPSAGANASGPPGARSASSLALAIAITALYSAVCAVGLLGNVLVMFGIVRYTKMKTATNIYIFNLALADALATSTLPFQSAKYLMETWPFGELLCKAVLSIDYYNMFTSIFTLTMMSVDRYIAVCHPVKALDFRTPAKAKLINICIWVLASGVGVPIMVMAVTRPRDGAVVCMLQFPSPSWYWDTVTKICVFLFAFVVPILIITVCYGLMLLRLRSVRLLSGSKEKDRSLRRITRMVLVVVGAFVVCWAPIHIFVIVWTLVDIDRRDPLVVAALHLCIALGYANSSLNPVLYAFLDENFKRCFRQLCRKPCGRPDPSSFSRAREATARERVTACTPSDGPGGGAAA

Row | Compound | Ki [1] | EC50 [2] | Emax [2] | EC50 [3] | Emax [3] | Ki [4]
1 | O=C1C[C@]23CCN(CC4CC4)[C@H](Cc4ccc(O)cc42)[C@@H]3CN1Cc1ccc(O)cc1 [Compound 5, (4aS,5R,10bS)-13-(cyclopropylmethyl)-9-hydroxy-3-(4-hydroxybenzyl)-4,4-a,5,6-tetrahydro-1H-5,10b-(epiminoethano)benzo[f]isoquinolin-2(3H)-one] | 22.9 ± 8.53 nM | 102 ± 19.9 nM | 42% | 45.9 ± 14 nM | 30% | 6.27 ± 1.45 nM
2 | Oc1ccc2c(c1)[C@@]13CCNC[C@H]1[C@@H](C2)N(CC1CC1)CC3 [Compound 13, (4aS,5R,10bR)-13-(cyclopropylmethyl)-2,3,4,4a,5,6-hexahydro-1H-5,10b-(epiminoethano)benzo[f]isoquinolin-9-ol] | 174 ± 33.7 nM | 29.5 ± 14.8 nM | 78.3% | 29.4 ± 7.66 nM | 61% | 0.21 ± 0.04 nM
3 | NC(=O)CN1C[C@H]2[C@H]3Cc4ccc(O)cc4[C@@]2(CCN3CC2CC2)CC1=O [Compound 4, 2-((4aS,5R,10bS)— 13-(cyclopropylmethyl)-9-hydroxy-2-oxo-4,4-a,5,6-tetrahydro-1H-5,10b-(epiminoethano)benzo[f]isoquinolin-3(2H)-yl)acetamide] | 49 ± 17.7 nM | 80.8 ± 5.95 nM | 62% | 9.11 ± 1.22 nM | 24% | 0.55 ± 0.08 nM
4 | O=C(O)CN1C[C@H]2[C@H]3Cc4ccc(O)cc4[C@@]2(CCN3CC2CC2)CC1=O [Compound 8, 2-((4aS,5R,10bS)-13-(cyclopropylmethyl)-9-hydroxy-2-oxo-4,4-a,5,6-tetrahydro-1H-5,10b-(epiminoethano)benzo[f]isoquinolin-3(2H)-yl)acetic acid] | 82.2 ± 30.1 nM | 14.9 ± 2.71 nM | 66% | 6.06 ± 2.1 nM | 12.3% | 4.03 ± 0.07 nM
5 | O=C1C[C@]23CCN(CC4CC4)[C@H](Cc4ccc(O)cc42)[C@@H]3CN1 [Compound 7, (4aS,5R,10bS)-13-(cyclopropylmethyl)-9-hydroxy-4,4-a,5,6-tetrahydro-1H-5,10b-(epiminoethano)benzo[f]isoquinolin-2(3H)-one] | 15 ± 3.45 nM | 5.1 ± 1.62 nM | 74.7% | 13.1 ± 3.75 nM | 28.7% | 0.18 ± 0.02 nM
